For one data set, the system named is cow. Put plainly: Solution / magnesium in complicated cases with intoxication. The data set is classed as in vivo. Here is the method: For example, during calving of weak and strong contractions of the uterus, atony of the rumen, reticulum and abamasum, colic and constipation. In fact, after administration of the solution, the effect can be seen even in complicated cases when intoxication takes place, the temperature of the body is increased, and there is loss of appetite. In this situation, the cow starts to ruminate and the general condition improves in 10 to 15 minutes after administration of the solution.

The subject of another data set is Dogs. As to conditions: up to 600 mg/kg IV, single dose; cited from earlier work.
The subject of data set [1] is parturient paresis in cows (milk fever), ketosis (acetonomia), and paraplegia gravidarum. Put plainly: Methenamine along with magnesium salts in parturient paresis, ketosis and paraplegia gravidarum. The data set is classed as in vivo. The source says:
Methenamine breaks down to formaldehyde and ammonia in areas of inflammation where formaldehyde acts as anti-inflammatory and bactericidal agent. Methenamine also increases membrane permeability, which helps to eliminate antibacterial toxic material from the body. […] After the fifteen minutes of administration, the condition of cows that had parturient paresis (milk fever), ketosis (acetonomia) started to improve and the cows began rumination again.

Data set [2] concerns rats. The settings on record: reproduction studies in rats; cited from earlier work.
The test system of data set [3] is rats. The settings on record: up to 600 mg/kg IV, single dose; cited from earlier work.
A further data set has as its system rabbits. The settings on record: reproduction studies in rabbits; cited from earlier work.
The conditions of data set [4]: powder; cited from earlier work.
A further data set concerns monkeys. The settings on record: monkeys from six months old, double the normal dose; cited from earlier work.
A further data set concerns inflammatory disorders. Put plainly: Magnesium sulfate in distilled water by intraperitoneal injection in a cow. The data set is classed as in vivo. The settings on record: approximately 40 grams, cow of 500 kg. The source says: After several years of using magnesium salts, the dose was reduced to an average dose of 3–20 grams for a 500 kg cow to get the same therapeutic effect. Therefore, the intraperitoneal administration, compared to other methods of drug administration, is a safe method because it avoids the toxic side effects through first-pass hepatic metabolism which permits the organism to create the abundance of magnesium used for recovery and healing. In fact, the administered dose can be higher than the traditional toxic level doses.

The mark [5] stands for this setting: after administration of magnesium.

As to `[Mg+2]` [magnesium], in the data set on cow (setting [5]), the “day of complete recovery” value was “seventh” and the “day on which the general condition improved” value was “third”. Further, in the data set with cow (cows that previously did not have estrus), the “day of estrus after administration” value is listed as “seventh”.
On to `C1N2CN3CN1CN(C2)C3` [methenamine, methenamine (hexamethylenetetramine, C6H12N4)], for which the toxic effects result in the data set on Dogs and in the data set on rats [3] was “without evidence of toxic effects” in each case. The treatment outcome in [1] (20 grams per 500 kg, along with magnesium salts, other therapies unsuccessful) is “successful treatment”. Besides, in data set [1] (parturient paresis (milk fever), ketosis (acetonomia)), the “time after administration at which condition started to improve and rumination began” value is given as “fifteen”. Also, the “harm to the fetus” value with rats [2] and with rabbits was “have not revealed evidence of harm to the fetus” each time. Also, the solubility in water entry in [4] is reported as “very soluble in water”.
As to `C1N2CN3CN1CN(C2)C3` [Methenamine hippurate], the adverse effects entry in the data set with monkeys is “without adverse effects”.
For `O.O.O.O.O.O.O.O=S(=O)([O-])[O-].[Mg+2]` [magnesium sulfate, magnesium sulfate (MgSO4×7H2O)], in the data set with inflammatory disorders, the side effects result was “without any side effects” and the treatment outcome is given as “successful treatment”.

Values taken from patent US7097860B2, “Method and composition for treatment of inflammatory and inflammation-related disorders” (priority 2001, dated 2006).
